Assay results: patent EP1614683B1, “Indazole compounds and pharmaceutical compositions for inhibiting protein kinases, and methods for their use” (priority 1999, dated 2001)
Values joined by “and” are separate entries in the source; they are usually repeats but may differ in a detail not shown here. Identical values can stand only once. Like-named read-outs stand apart in the source and are kept apart here.

How the values were obtained:
[1] = in vitro; format: in vitro ADME, human; conditions: 2 h
Outline: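 HLM diluted to 5 mg/mL in 100 mM KPO4, preincubated 10 min at 37 °C with NADPH-regenerating system. Compound (5 µM final) incubated at 37 °C in triplicate, sampled at 0 and 2 h into ice-cold acetonitrile, then LC-MS analysis.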

[2] = system: VEGF dependent retinal neovascularization; assay: Neonatal rat model of retinopathy of prematurity; format: in vivo; conditions: Model ROP
Method: A second model of VEGF dependent retinal neovascularization was employed to evaluate the activities of this series of compounds. […] The animals are exposed for 24 hours to a concentration of 50% oxygen followed by 24 hours at a concentration of 10% oxygen. This alternating cycle of hyperoxia followed by hypoxia is repeated 7 times after which the animals are removed to room air (P14). Compounds are administered via intravitreal injection upon removal to room air and the animals are sacrificed 6 days later (P20). The isolated retinas are then isolated, stained mounted and analyzed as detail above in the development model. The effectiveness was also graded as is described for the development model.

[3] = target: human FGF-R1 (Homo sapiens, UniProt P11362, C488A/C584S/L457V); assay: FGF-R spectrophotometric assay; format: biochemical
Method: The spectrophotometric assay was carried out as described above for VEGF-R2, except for the following changes in concentration: FGF-R = 50 nM, ATP = 2 mM, and poly(E4Y1) =15 mM.

[4] = target: LCK tyrosine kinase (Homo sapiens, UniProt P06239, C224D/P223M); assay: LCK spectrophotometric assay; format: biochemical
Method: The spectrophotometric assay was carried out as described above for VEGF-R2, except for the following changes in concentration: LCK = 60 nM, MgCl2 = 0 mM, poly(E4Y1) = 20 mM.

[5] = target: T1, phosphorylated Tie-2 (aa 775-1122) (Homo sapiens, UniProt Q02763); assay: TIE-2 spectrophotometric assay; format: biochemical; conditions: for inhibition at 10 µM: read-out: % Inhibition Tie2-P, compound tested at 10 µM; for inhibition at 1 µM: read-out: % Inhibition @ 1 µM Tie2-P
T1 construct: 4 to 12 nM phosphorylated Tie-2 (aa 775-1122); made in house; host or cells: insect cells
Method: This construct also carries a R774M mutation, which serves as the initiating methionine residue in translation.
The kinase-catalyzed production of ADP from ATP that accompanies phosphoryl transfer to the random copolymer poly(Glu4 Tyr) was coupled to the oxidation of NADH through the activities of pyruvate kinase (PK) and lactate dehydrogenase (LDH). NADH conversion to NAD* was monitored by the decrease in absorbance at 340 nm (ε = 6.22 cm^-1mM^-1) using a Beckman DU650 spectrophotometer. Typical reaction solutions contained 1 mM phosphoenolpyruvate, 0.24 mM NADH, 40 mM MgCl2, 5 mM DTT, 2.9 mg/mL poly(Glu4Tyr), 0.5 mM ATP, 15 units/mL PK, 15 units/mL LDH in 100 mM HEPES, pH 7.5. […]

[6] = system: human umbilical vein endothelial cells (HUVEC); assay: HUVEC proliferation assay (VEGF-stimulated, MTT); format: cell-based; conditions: Homo sapiens, HUVEC, Table 1
[7] = target: T2, human CHK1 (FL-CHK1) (Homo sapiens, UniProt O14757); assay: CHK1 coupled spectrophotometric assay; format: biochemical; conditions: Table 1; read-out: CHK -1* (Ki)
T2 construct: C-terminally His-tagged full-length human CHK1 (FL-CHK1) was expressed using the baculovirus/insect cell system; made in house; host or cells: baculovirus/insect cell system
T2 sequence (O14757 1-476): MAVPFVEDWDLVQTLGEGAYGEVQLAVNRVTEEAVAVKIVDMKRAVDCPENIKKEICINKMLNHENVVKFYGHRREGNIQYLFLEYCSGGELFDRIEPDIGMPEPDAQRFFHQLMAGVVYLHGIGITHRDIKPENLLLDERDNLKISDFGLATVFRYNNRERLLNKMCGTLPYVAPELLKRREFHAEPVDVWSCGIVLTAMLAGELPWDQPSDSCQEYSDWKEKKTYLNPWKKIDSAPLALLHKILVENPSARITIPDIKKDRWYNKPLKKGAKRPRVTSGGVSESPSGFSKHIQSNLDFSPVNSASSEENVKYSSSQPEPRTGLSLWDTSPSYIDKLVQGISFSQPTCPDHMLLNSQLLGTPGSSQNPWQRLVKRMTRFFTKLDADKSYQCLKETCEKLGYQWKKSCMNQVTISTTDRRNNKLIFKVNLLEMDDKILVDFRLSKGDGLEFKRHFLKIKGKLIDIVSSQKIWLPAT
From the text: CHK1 Construct for Assay: C-terminally His-tagged full-length human CHK1 (FL-CHK1) was expressed using the baculovirus/insect cell system. […] The protein was purified by conventional chromatographic techniques.
The production of ADP from ATP that accompanies phosphoryl transfer to the synthetic substrate peptide Syntide-2 ([…]) was coupled to oxidation of NADH using phosphoenolpyruvate (PEP) through the actions of pyruvate kinase (PK) and lactic dehydrogenase (LDH). The oxidation of NADH was monitored by following the decrease of absorbance at 340 nm (∈340 = 6.22 cm^-1 mM^-1) using a HP8452 spectrophotometer. […] Assays were initiated with 10 nM of FL-CHK1. Ki values were determined by measuring initial enzyme activity in the presence of varying concentrations of test compounds. The data were analyzed using Enzyme Kinetic and Kaleidagraph software.

[8] = in vivo; conditions: mouse, plasma, pH 2.3
[9] = intravitreal, 1 mg/ml, vehicle PEG/water 70:30
[10] = intravitreal, 10 mg/ml, vehicle PEG/water 70:30
[11] = Table 1, compound concentration 1 µM, read-out: FGF-P* (% inhibition)
[12] = Table 1, compound concentration 1 µM, read-out: Lck-P* (% inhibition)
[13] = mouse, in vivo, ip, 25 mg/kg, pH 2.3
[14] = mouse, in vivo, po, 50 mg/kg, pH 2.3
[15] = Table 5, 1 µM, bold values spectrophotometric assay, non-bolded DELFIA assay (bold not visible here)
[16] = + albumin, read-out: HUVEC + albumin IC50
[17] = intravitreal, 5 mg/ml, vehicle PEG/water 70:30

Chain of LCK tyrosine kinase (P06239 223-509 P223M/C224D): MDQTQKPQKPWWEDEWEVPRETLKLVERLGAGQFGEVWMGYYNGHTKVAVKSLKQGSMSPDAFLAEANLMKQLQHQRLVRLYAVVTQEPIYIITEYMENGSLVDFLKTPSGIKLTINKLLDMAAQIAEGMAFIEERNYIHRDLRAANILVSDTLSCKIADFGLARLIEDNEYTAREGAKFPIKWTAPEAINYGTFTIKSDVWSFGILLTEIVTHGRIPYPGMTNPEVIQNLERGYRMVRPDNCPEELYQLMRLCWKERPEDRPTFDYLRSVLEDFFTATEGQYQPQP
T1 sequence (Q02763 775-1122): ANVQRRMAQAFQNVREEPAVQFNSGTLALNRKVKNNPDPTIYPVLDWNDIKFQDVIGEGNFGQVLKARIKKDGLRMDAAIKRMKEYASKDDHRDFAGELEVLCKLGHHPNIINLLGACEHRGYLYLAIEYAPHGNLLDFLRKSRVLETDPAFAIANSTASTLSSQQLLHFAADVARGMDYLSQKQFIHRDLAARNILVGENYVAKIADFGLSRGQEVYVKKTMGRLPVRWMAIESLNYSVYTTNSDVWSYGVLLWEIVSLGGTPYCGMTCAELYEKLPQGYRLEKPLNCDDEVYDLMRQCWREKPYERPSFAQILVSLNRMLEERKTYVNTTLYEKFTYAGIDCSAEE
Chain of human FGF-R1 (P11362 456-766 L457V/C488A/C584S): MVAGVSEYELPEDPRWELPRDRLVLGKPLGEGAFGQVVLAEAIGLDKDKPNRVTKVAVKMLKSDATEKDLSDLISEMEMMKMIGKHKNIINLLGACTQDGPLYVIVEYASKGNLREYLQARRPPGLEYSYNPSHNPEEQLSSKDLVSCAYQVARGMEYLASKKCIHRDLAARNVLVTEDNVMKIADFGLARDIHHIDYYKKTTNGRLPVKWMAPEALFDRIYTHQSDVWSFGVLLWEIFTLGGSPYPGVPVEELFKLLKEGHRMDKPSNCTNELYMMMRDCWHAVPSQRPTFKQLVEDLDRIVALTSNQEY

O=C(Nc1cccc(C(=O)c2ccc3c(/C=N/n4cccc4)n[nH]c3c2)c1)c1ccccc1 [Example 45(b), 6-(3-Benzamidobenzoyl)-3-E-[N-(pyrrol-1-yl)iminomethyl]-1H-indazole]
% remain (HLM, 2 h) ([1]; human, microsomes, 5 µM): 97% | % Inhibition [2, 9]: 25% | % Inhibition [2, 10]: 60% | Initial Evaluation [2, 10]: ++ (two pluses being judged to be approximately 25-75 % regression)

Cc1cc(O)ccc1-c1ccc2c(-c3nc4ccccc4[nH]3)n[nH]c2c1 [24(b), 4-[3-(1-H-Benzoimidazol-2-yl)-1-H-indazol-6-yl]-3-methylphenol]
inhibition at 1 µM ([3]; read-out: FGF* (% inhibition)): 88% | inhibition at 1 µM ([4]; read-out: Lck* (% inhibition)): 96% | inhibition at 10 µM [5]: 92%

Cc1ccc2cc(NC(=O)c3ccccc3Sc3ccc4c(/C=C/c5ccccc5)n[nH]c4c3)ccc2n1 [Reference Example 38(a), 6-[2-(2-Methylquinol-6-ylcarbamoyl)phenylsulfanyl]-3-E-(2-styryl)-1H-indazole]
inhibition at 1 µM [3, 11]: 74% | inhibition at 1 µM [4, 12]: 77% | Initial Evaluation [2, 9]: + (one plus being detectable regression judged to be approximately 25 percent or less) | Initial Evaluation [2, 10]: +++ (three pluses give to retinas with near total regression (approximately 75% or greater))

O=C(c1cccc(NC(=O)c2cccc3[nH]ccc23)c1)c1ccc2c(/C=C/c3ccccn3)n[nH]c2c1 [41 (d)]
% Inhibition [2, 9]: 0% | AUCleast [13]: 10324 ng·h/mL | T1/2 [13]: 2.8 h | AUCleast [14]: 7072 ng·h/mL | T1/2 [14]: 1.5 h

CC(=O)Nc1cccc(C(=O)c2ccc3c(/C=C/c4ccccc4)n[nH]c3c2)c1 [19(a), N-[3-(3-Styryl-1H-indazole-6-carbonyl)-phenyl]-acetamide]
inhibition at 1 µM [3, 11]: 92% | inhibition at 1 µM [4, 12]: 16% | inhibition at 1 µM [5, 15]: 18% | IC50 ([6]; read-out: HUVEC IC50): 44 nM

CC(=O)c1cccc(C(=O)Nc2cccc(N(C)c3ccc4c(/C=C/c5ccc6c(c5)OCO6)n[nH]c4c3)c2)c1 [16(e), 3-Acetyl-N-(3-{[3-(2-benzo[1,3]dioxol-5-yl-vinyl)-1H-indazol-6-yl]-methyl-amino}-phenyl)-benzamide]
inhibition at 1 µM [3, 11]: 59% | inhibition at 1 µM [4, 12]: 8% | IC50 [6, 16]: 106 nM | IC50 ([6]; read-out: HUVEC IC50): 4.9 nM | remaining at 2 h, 5 µM ([1]; human liver microsomes, 5 µM test compound, 37 °C, read-out: % remain (HLM, 2 h)): 40% | % Inhibition [2, 9]: 16% | % Inhibition [2, 17]: 36% and 37% | Initial Evaluation [2, 17]: ++ (two pluses being judged to be approximately 25-75 % regression) | % Inhibition [2, 10]: 54% | Initial Evaluation [2, 10]: +++ (three pluses give to retinas with near total regression (approximately 75% or greater))

O=C(c1cccc(NC(=O)c2cccc3[nH]ccc23)c1)c1ccc2c(/C=C/c3ccccn3)n[nH]c2c1 [Reference Example 41(d), 6-[3-(indol-4-ylcarboxamido)benzoyl]-3-E-[2-(pyridin-2-yl)ethenyl]-1H-indazole]
IC50 [6, 16]: 6.4 nM | IC50 ([6]; read-out: HUVEC IC50): 0.9 nM | % Inhibition [2, 10]: 59% | Initial Evaluation [2, 10]: +++ (three pluses give to retinas with near total regression (approximately 75% or greater))

Cc1cccc(C(=O)Nc2cccc(N(C)c3ccc4c(/C=C/c5ccc6c(c5)OCO6)n[nH]c4c3)c2)c1 [16(b), N-(3-{[3-(2-Benzo[1,3]dioxol-5-yl-vinyl)-1H-indazol-6-yl]-methyl-amino}-phenyl)-3-methyl-benzamide]
inhibition at 1 µM [3, 11]: 73% | inhibition at 1 µM [4, 12]: 22% | inhibition at 1 µM [5, 15]: 52% | IC50 [6, 16]: 140 nM | IC50 ([6]; read-out: HUVEC IC50): 4.7 nM

Cc1cc(O)c(Cl)cc1-c1ccc2c(-c3nc4ccccc4[nH]3)n[nH]c2c1 [24(c), 4-[3-(1-H-Benzoimidazol-2-yl)-1-B-indazol-6-yl]-2-chloro-5-methyl-phenol]
inhibition at 1 µM ([3]; read-out: FGF* (% inhibition)): 89% | inhibition at 1 µM ([4]; read-out: Lck* (% inhibition)): 93% | inhibition at 1 µM [5]: 94%

Cc1cnc(C(=O)Nc2cccc(C(=O)c3ccc4c(/C=C/c5ccccc5)n[nH]c4c3)c2)s1 [19(d), 5-Methyl-thiazole-2-carboxylic acid [3-(3-styryl-1H-indazole-6-carbonyl)-phenyl]-amide]
inhibition at 1 µM [3, 11]: 39% | inhibition at 1 µM [4, 12]: 33% | inhibition at 1 µM [5, 15]: 15% | IC50 [6, 16]: 34 nM | IC50 ([6]; read-out: HUVEC IC50): 6.8 nM

Brc1cccc(Oc2ccc3c(/C=C/c4ccccc4)n[nH]c3c2)c1 [8(d), 6-(3-Bromo-phenoxy)-3-styryl-1H-indaxole]
Ki [7]: 82 nM | inhibition at 1 µM [5]: 10%

COc1cc(-c2ccc3c(-c4nc5ccccc5[nH]4)n[nH]c3c2)c(C)cc1O [24(a), 4-[3-(1-H-Benzoimidazol-2-yl)-1-H-indazol-6-yl]-2-methoxy-5-methyl-phenol]
inhibition at 1 µM ([3]; read-out: FGF* (% inhibition)): 72% | inhibition at 1 µM ([4]; read-out: Lck* (% inhibition)): 67% | inhibition at 10 µM [5]: 91%

Cc1ccc2cc(NC(=O)c3ccccc3Sc3ccc4c(/C=C/c5ccccn5)n[nH]c4c3)ccc2n1 [Reference Example 33(b)]
inhibition at 1 µM [3, 11]: 77% | Initial Evaluation [2, 10]: ++ (two pluses being judged to be approximately 25-75 % regression) | T1/2 (IP, 25 mg/kg, vehicle PEG400:H2O pH 2.3 60:40): 3.0 h | T1/2 (PO, 50 mg/kg, vehicle PEG400:H2O pH 2.3 60:40): 3.0 h | AUC ([8]; ip, 25 mg/kg): 11200 ng·h/mL | AUC ([8]; po, 50 mg/kg): 3920 ng·h/mL

CCn1nc(C)cc1C(=O)Nc1cccc(C(=O)c2ccc3c(/C=C/c4ccccn4)n[nH]c3c2)c1.Cl [Example 59(a), 6-[3-((1-Ethyl-3-methyl-1H-pyrazol-5-yl)carboxamido)benzoyl]-3-E-[2-(pyridin-2-yl)ethenyl]-1H-indazole hydrochloride]
% Inhibition ([2]; 1 mg/ml, vehicle 0.5%CMC): 19% | % Inhibition ([2]; 10 mg/ml, vehicle C.5%CMC): 41% | T1/2 (mouse, in vivo, po, 25 mg/kg): 1.6 h
